Test results published in patent US12617777B2, “GPR84 antagonists and uses thereof” (Liminal BioSciences Limited, priority 2021, dated 2026).

Molecular target: T1, human GPR84 receptor (Homo sapiens, UniProt Q9NQS5)
T1 construct: host or cells: HEK293, transient transfection
Experiment: Gαi biosensor BRET assay in HEK293 cells (antagonism of ZQ-16)
Type: cell-based
Settings: for inhibition at 10 µM: HEK293, single concentration 10 μM (designated F); for inhibition at 2 µM: HEK293, single concentration 2 μM (designated A); for IC50: HEK293 cells, antagonism of 200 nmol/L ZQ-16
Summary of the method: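 HEK293 cells transiently expressing human GPR84, Gαi2-Rluc8, GFP10-Gγ2 and Gβ1, in Tyrode's buffer pH 7.5. Compounds preincubated 5 min at 37° C, then 200 nmol/L ZQ-16 for 5 min at room temperature; coelenterazine 400A 5 μmol/L. BRET2 acceptor/donor ratio, background- and vehicle-corrected net BRET.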

T1 sequence (Q9NQS5 whole entry): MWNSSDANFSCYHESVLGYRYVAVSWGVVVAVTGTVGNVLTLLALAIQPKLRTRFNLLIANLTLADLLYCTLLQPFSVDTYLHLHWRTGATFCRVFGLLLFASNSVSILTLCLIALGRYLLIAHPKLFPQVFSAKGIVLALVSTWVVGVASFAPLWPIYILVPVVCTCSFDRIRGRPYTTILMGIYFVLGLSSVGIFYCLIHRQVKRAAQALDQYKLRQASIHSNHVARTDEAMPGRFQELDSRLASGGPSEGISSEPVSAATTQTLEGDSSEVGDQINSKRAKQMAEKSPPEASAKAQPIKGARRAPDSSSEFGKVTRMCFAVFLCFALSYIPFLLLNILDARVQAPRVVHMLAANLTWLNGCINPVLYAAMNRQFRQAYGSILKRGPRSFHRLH

| SMILES | inhibition at 10 µM | inhibition at 2 µM | IC50 |
| --- | --- | --- | --- |
| COc1cccc(N(C)c2cn(CC3OCC(C)(C)CO3)nn2)c1 [Compound I-812] | ≤ 25% | – | – |
| COc1ccc(Cl)c(N(C)c2cn(CC3OCC(C)(C)CO3)nn2)c1 [Compound I-813] | > 75% | – | – |
| FC(F)(F)COc1cc(C#CC2CC2)cnc1-c1cn(CC2OCC3(CCC3)O2)nn1 (stereo not shown) [Compound I-815] | – | > 75% | – |
| CC1(CO)CN(c2cnc(-c3cn(CC4OCC5(CCC5)O4)nn3)c(OCC(F)(F)F)c2)C1 (stereo not shown) [Compound I-816] | > 75% | – | – |
| CCOCC#Cc1cnc(-c2cn(CC3OCC(C)(C)CO3)nn2)c(OC2CC2)c1 [Compound I-819] | > 75% | – | ≤ 300 nM |
| Cc1cc(C#CCNC2CC2)ccc1-c1cn(CC2OCC(C)(C)CO2)cn1 [Compound I-820] | – | > 75% | 300 to 1000 nM |
| FC(F)(F)Cc1cc(C#CC2CC2)cnc1-c1cn(C[C@H]2CCCCO2)nn1 [Compound I-822] | – | > 75% | ≤ 300 nM |
| Clc1cc(C#CC2CC2)cnc1-c1cn(C[C@H]2CCCCO2)nn1 [Compound I-823] | ≤ 25% | – | – |
| CC(=O)c1ccc(C)c(N(C)c2cn(CC3OCC(C)(C)CO3)nn2)c1 [Compound I-825] | – | > 75% | – |
| CC1(C)COC(Cn2cc(-c3cn(CC4OCC(C)(C)CO4)nn3)nn2)OC1 [Compound I-827] | 50 to 75% | – | – |
| Cc1cc(N2CCN(C(C)c3ccccn3)CC2)ccc1-c1cn(CC2OCC(C)(C)CO2)cn1 (stereo not shown) [Compound I-828] | 50 to 75% | – | 300 to 1000 nM |
| COCC#Cc1ccc(-c2cn(CC3OCC(C)(C)CO3)nn2)c(N(C)C)c1 [Compound I-829] | > 75% | – | ≤ 300 nM |
| Cc1ccc(C(C)(C)O)cc1N(C)c1cn(CC2OCC(C)(C)CO2)nn1 [Compound I-830] | 50 to 75% | – | – |
| CC1(C)COC(Cn2cnc(-c3ncc(C#CC4CC4)cc3OC3CC3)c2)OC1 [Compound I-831] | – | > 75% | ≤ 300 nM |
| CC1(C)COC(Cn2cncc2-c2ncc(C#CC3CC3)cc2OC2CC2)OC1 [Compound I-832] | ≤ 25% | – | – |
| COCC#Cc1cnc(-c2cn(CC3OCC4(CC4)CO3)nn2)c(OC2CC2)c1 [Compound I-833] | ≤ 25% | – | ≤ 300 nM |
| CCOc1cc(C#CCOC)cnc1-c1cn(CC2OCC(C)(C)CO2)nn1 [Compound I-834] | ≤ 25% | – | ≤ 300 nM |
| Cc1cc(C#CCN2CC(C)(C)C2)cnc1-c1nnnn1CC1OCC(C)(C)CO1 [Compound I-836] | 50 to 75% | – | – |
| COCC#Cc1cnc(-c2cn(CC3OCC(C)(C)CO3)nn2)c(OC(C)C)c1 [Compound I-837] | ≤ 25% | – | – |
| OCC#Cc1cnc(-c2cn(CC3OCC4(CC4)CO3)nn2)c(OC2CC2)c1 [Compound I-839] | > 75% | – | – |

Further lines, results first:

| inhibition at 10 µM | inhibition at 2 µM | IC50 | SMILES |
| --- | --- | --- | --- |
| ≤ 25% | – | – | Cc1ccc(C#N)cc1N(C)c1cn(CC2OCC(C)(C)CO2)nn1 [Compound I-811] |
| ≤ 25% | – | – | COc1ccc(C)c(N(C)c2cn(CC3OCC(C)(C)CO3)nn2)c1 [Compound I-814] |
| > 75% | – | – | CC1(C)COC(Cn2cc(-c3c(Cl)cc(C#CC4CC4)c[n+]3[O-])nn2)OC1 [Compound I-817] |
| > 75% | – | – | CC1(C)CN(CC#Cc2cnc(-c3cn(C[C@H]4CCCCO4)nn3)c(CC(F)(F)F)c2)C1 [Compound I-818] |
| > 75% | – | – | CN(C)c1cc(C#CCN2CC(C)(C)C2)c(F)cc1-c1cn(CC2OCC3(CCC3)O2)nn1 (stereo not shown) [Compound I-821] |
| ≤ 25% | – | – | CN(c1cccc(C#CC2CC2)c1)c1cn(CC2OCC(C)(C)CO2)nn1 [Compound I-824] |
| > 75% | – | – | Cc1cc(C#CCN)cnc1-c1cn(CC2CCCCO2)nn1 (stereo not shown) [Compound I-826, 3-(5-methyl-6-(1-((tetrahydro-2H-pyran-2-yl)methyl)-1H-1,2,3-triazol-4-yl)pyridin-3-yl)prop-2-yn-1-amine] |
| ≤ 25% | – | – | Cc1cc(C#CCN2CC(C)(C)C2)cnc1-c1nnn(CC2OCC(C)(C)CO2)n1 [Compound I-835] |
| 50 to 75% | – | – | CCOCC#Cc1cnc(-c2cn(CC3OCC(C)(C)CO3)nn2)c(OC(C)C)c1 [Compound I-838] |
